Test results taken from patent US11564913B2, “Compositions and methods for treating cancer” (Children's Hospital Medical Center, priority 2019, dated 2023).

Columns and labels:
[1] = test system: H2122 lung cancer xenografts; assay: H2122 xenograft mouse model; format: in vivo, mice
Text: FIG. 8: IODVA1 inhibits tumor growth of human breast and lung cancer xenografts. […] (B) Tumors were also stained for Ki67 as a proliferation marker (top panel). […] (C) Quantification of Ki67-positive and cleaved caspase 3-positive cells of tumors shown in (B). […] Animals began treatment when tumors became detectable at 10 days post-injection (*, p<0.05). […] IODVA1 treated tumors also had fewer proliferating cells compared to control vehicle treated animals, as determined by immunohistochemical staining for Ki67 (bottom) and increased intratumoral fibrosis. Representative images were taken at 100× magnification, scale bar is 200 μm. (F) Quantification of Ki67+ cells in control and IODVA1 treated tumors shown in (E).
The lung cancer mouse model was generated by injecting the lung cancer H2122 cells at the right and left flanks of NSG mice. These cells harbor the KRAS^G12C mutation and form aggressive tumors. Mice were treated with IODVA1 or with vehicle control every other day for 14 days. […]
Human lung cancer cell line NCI-H2122 (ATCC) harboring biallelic KRAS^G12C mutations were cultured in RPMI-1640 supplemented with 10% FBS. […] Tumor size was measured using digital calipers and tumor volume estimated using the formula (length×width^2)/2. […] A minimum of 20 random fields were used for quantification. […]

[2] = test system: phosphorylated Vav3 (pY173) in MDA-MB-231 cells; assay: Immunoblot of phosphorylated Vav3 (pY173); format: cell-based, human; details: 3 μM, 15 min
Procedure: FIG. 16: IODVA1 decreases levels of pVav3 in in vitro and in vivo models of triple negative breast cancer. (A) Immunoblot and quantification of Vav3 protein in lysates of MDA-MB-231 triple negative breast cancer cells stably expressing scrambled or Vav3-targeting shRNAs. Viability of the MDA-MB-231 cells stably expressing shVav3 in the presence of IODVA1 (0-1 μM). Cells were grown in the presence of IODVA1 and counted by trypan blue exclusion at the indicated time points. (B) MDA-MB-231 cells were incubated with IODVA1 (3 μM) for 15 min and the levels of phosphorylated Vav3 (pY173) were assessed by immunoblotting. (C) Immunohistochemical staining of phosphorylated Vav3 in tissue derived from MDA-MB-231 xenografts treated with vehicle control or IODVA1.
Next, we tested if IODVA1 is effective in another model of Vav3-dependent cancer. We chose MDA-MB-231 triple negative breast cancer cells because these cells express high endogenous levels of Vav3 (Chen, 2015) and because Vav3 is an acknowledged target in breast cancer (Chen, 2015; Lee, 2008; Aguilar, 2014; Citterio, 2012; Lorenzo-Martin. 2019). […] Second, we incubated MDA-MB-231 cells with IODVA1 (3 μM) for 15 min and analyzed the levels of phosphorylated Vav3 (pY173) by immunoblotting. […]

OC1(c2ccccn2)N=C(Nc2nc3ccccc3[nH]2)N=C1c1ccccn1 (stereo not drawn) [IODVA1, (Z)-2-((1H-benzo[d]imidazol-2-yl)imino)-4,5-di(pyridin-2-yl)-2,5-dihydro-1H-imidazol-5-ol]
significant decrease: tumor volume ([1]; IP 250 μl of 1 mM every other day for 14 days) | number of Ki67-positive tumor cells ([1]; IP every other day for 14 days) | pY173 signal [2]
